We go through 16 molecules from patent publication US4136163A, “P-Menthane carboxamides having a physiological cooling effect” (Wilkinson Sword Limited, priority 1971, dated 1979).

For assay [1], the system named is cold receptors. The assay is described as follows: Threshold test: minimum quantity of compound on filter paper square on tongue giving a noticeable cooling effect, selected panel of 6 people. The assay is classed as in vivo, human. The conditions noted are these: panel of 6 people, cooling reported 50% of the time. The source says: For example, a controlling factor in the onset of cooling effect, its intensity and longevity will be the rate of penetration of the compounds through the epidermis and this will vary in different locations on the human body.
It will also benoted that the described test procedure is done on a statistical basis. This is necessary since sensitivity to these compounds will vary not only from compound to compound and from one part of the body to another, but also from one individual to another. Tests of this nature are commonly used in the testing of the organoleptic properties, e.g. taste, smell etc. of organic and inorganic compounds, see Kirk-Othmer: Encyclopedia of Chemical Technology, 2nd. Ed.
The following test procedure is aimed at determining the minimum quantity of the test compound required to produce a noticeable cooling effect on a person of average sensitivity, this minimum quantity being termed the threshold for that particular compound. The tests are carried out on a selected panel of 6 people of median sensitivity to 1-menthol.
To select a test panel of average sensitivity the following procedure is used. Known quantities of 1-menthol in solution in petroleum ether (bp.40-60) are placed on 5 mm. squares of filter paper, whereafter the solvent is allowed to evaporate. A panel of observers is enrolled and asked to place one impregnated square at a time on the tongue and to report on the presence or absence of a cooling effect. […] Conveniently, one starts with squares containing 2.0 μg. 1-menthol, the amount on each successive square being half that of the preceding square, i.e. the second test square will contain 1.0 μg, the third 0.5 μg and so on. Each quantity is tested on the tongue at least 10 times. In this way, the thresholds to cold receptor stimulus by 1-menthol are determined for each individual of the panel, the threshold for each individual being that amount of 1-menthol for which, in a series of not less than 10 test applications, a cooling effect is reported 50% of the time.
To test the activity of compounds according to this invention, the above procedure is repeated using only the 6 selected panel members of average sensitivity to 1-menthol. The individual thresholds for each test compound on each of the 6 selected panel members are determined and averaged. Those compounds whose average threshold on the select test panel is 100 μg or less are regarded as having cooling activity in accordance with this invention.

Assay [2] concerns cold receptors. Description: Cooling effect of consumer product in the mouth / on the tongue. The assay is classed as in vivo, human. On the procedure: To the compositions was added 0.1% of N-n-propyl-p-menthane-3-carboxamide.
Shortly before completion of the blending operation 0.5% by weight of N-(p-menth-3-oyl) morpholine was added to the blender. […]
N-(2-hydroxy-n-propyl)-p-menthane-3-carboxamide was added to a proprietary gin in an amount of 0.08%.
99.5% sucrose and 0.5% citric acid were carefully fused together in the presence of a trace of water. Just before casting the melt onto a chilled plate 0.13% of N,N-dimethyl-p-menthane-3-carboxamide were repidly stirred in. The melt was then cast.
Water was added to icing sugar at 50° C to form a stiff paste. 0.05% of N-ethyl-p-menthane-3-carboxamide was then stirred into a paste and the mixture allowed to set. […]
A proprietary ice cream mixture was mixed in accordance with the manufactures instructions. Shortly before freezing N-p-menth-3-oyl-β-aminopropionic acid n-propyl ester was added in an amount of 0.05%. […]

The subject of assay [3] is cold receptors. The assay is described as follows: Cooling effect of consumer product applied to skin (face, scalp, lips, forehead). The assay is classed as in vivo, human. On the procedure: Into two separate samples of the base lotion were added 2.0% by weight based on the total composition of N-ethyl-p-menthane-3-carboxamide and N,N-dimethyl-p-menthane-3-carboxamide, each into a different one of the two samples.
To the recipe was added 3.0%, based on the total composition of N-p-menth-3-oylglycine methyl ester. […]
Sodium lauryl ether sulphate, 10 g., was dispersed in 90 g. water in a high speed mill. To the dispersion was added 3.3% by weight of N-(2-hydroxy-n-propyl)-p-menthane-3-carboxamide. […]
The sodium stearate was dissolved by stirring in a warm mixture of the ethanol propylene glycol and water. To the solution was added the perfume and 3.0% of N-(2-hydroxy-n-propyl)-p-menthane-3-carboxamide and the mixture then allowed to solidify into a waxy cake. […]
This Example illustrates now the physiological cooling effect of the compounds of this invention varies according to the locality of application.
In the course of grinding there was added 3.0% of N-n-propyl-p-menthane-3-carboxamide. […]
To this liquid was added 1.0% of N-ethyl-p-menthane-3-carboxamide. A paper tissue was then soaked in the liquid.

For assay [4] the following is noted: literature; cited from earlier work.
The test system of assay [5] is cold receptors. Description: Cooling effect in the stomach after swallowing tablet. The format is in vivo, human. Particulars: 0.05%. The source says:
Added to the mixture during grinding was 0.05% of N-ethyl-p-menthane- 3-carboxamide. After mixing the mixture was pressed into 0.5 g tablets.
Soluble aspirin (calcium acetylsalicylate) tablets were impregnated with 0.05% of N-ethyl-p-menthane-3-carboxamide by absorption in the tablet of a metered drop of an ethanolic solution of the carboxamide.

For assay [6], the system named is cold receptors. The assay is described as follows: Cooling effect of eye lotion when used to bathe the eyes. The format is in vivo, human. Particulars: Example 9, eye lotion, 0.003%, eyeball and eyelids. On the procedure:
To the formulation was added 0.003%, based on the total composition of N-(2-hydroxyethyl)-p-menthane carboxamide.

Where [7] appears, read: Example 2, after shave lotion, 2.0%, face.

As for `CCCNC(=O)C1CC(C)CCC1C(C)C` (centres unmarked) [H, --C3 H7 (n), N-n-propyl-p-menthane-3-carboxamide], the “Threshold (average minimum quantity to produce a noticeable cooling effect)” value (shortened to “Threshold”) in the assay with cold receptors [1] was 0.8 µg. Also, the cooling effect entry in the assay with cold receptors [2] (Example 10, mouthwash concentrate, 0.1%, diluted with approximately 10 times its own volume of water) was “a strong and long lasting cooling effect is obtained in the mouth”; with cold receptors [3] (Example 13, talcum powder, 3.0%), “freshening and cooling effect”.
For `COC(=O)CNC(=O)C1CC(C)CCC1C(C)C` (centres unmarked) [H, --CH2 COOCH3, N-(p-menth-3-oyl)glycine methyl ester], the “Threshold” value with cold receptors [1] was 0.6 µg. Further, the cooling effect result in the assay on cold receptors [3] (Example 3, toilet water, 3.0%, skin) is recorded as “a cooling effect was clearly noticeable on the skin well after the termination of any cooling effect attributable to the evaporation of the alcoholic carrier”; in the assay on cold receptors [3] (Example 8, hair tonic, 2.0%, scalp), “a cooling effect is noticed”; with cold receptors [3] (Example 21, antiseptic ointment, 0.5%, skin), “marked cooling effect”.
For the molecule `CC1CCC(C(C)C)C(C(=O)NCC(=O)O)C1` (centres unmarked) [H, --CH2 COOH, N-(p-menth-3-oyl) glycine], the “Threshold” value in the assay on cold receptors [1] amounted to 16 µg. Also, the cooling effect entry in the assay with cold receptors [3] (Example 6, lipstick, 0.6%, lips) is “a persistent cooling effect is clearly noiticeable”.
Take `CC1CCC(C(C)C)C(C(=O)NC(C)(C)CO)C1` (centres unmarked) [H, --C(CH3)2 CH2 OH, N-(1,1-dimethyl-2-hydroxyethyl)-p-menthane-3-carboxamide]: the “Threshold” value in the assay with cold receptors [1] is 0.4 µg. The cooling effect result with cold receptors [2] (Example 14, soft drink, 0.02% in concentrate, diluted with water) is “pleasantly cool after-effect”.
In the case of `CNC(=O)C1CC(C)CCC1C(C)C` (centres unmarked) [H, --CH3, N-methyl-p-menthane-3-carboxamide], the “Threshold” value in the assay on cold receptors [1] was 1.1 µg. The cooling effect entry in the assay on cold receptors [3] (Example 4, deodorant composition, 1.3%, skin) is given as “definte cooling sensation on the skin”.
For `CC(C)C1CCC(C)C(O)C1O` (centres unmarked) [2,3-p-menthane diol], the “cooling taste or refreshing effect” value in assay [4] is “sharp cooling taste”.
Regarding `CC1CCC(C(C)C)C(C(=O)N2CCOCC2)C1` (centres unmarked) [--CH2 CH2 OCH2 CH2 --, N-(p-menth-3-oyl)morpholine], the “Threshold” value in the assay with cold receptors [1] came out at 5.5 µg. For the same molecule, the “cooling effect on mucous membranes of the mouth” value in the assay on cold receptors [2] (Example 11, applied to the mucous membranes of the mouth) is recorded as “very pronounced”. In addition, the cooling effect entry with cold receptors [2] (Example 11, toothpaste, 0.5%, mouth) is recorded as “a strong cooling effect is noticed in the mouth”. In the assay with cold receptors [3] (Example 11, applied to the skin as an alcoholic solution), the “cooling effect on skin” value is on record as “relatively weak”.
As to `CCNC(=O)C1CC(C)CCC1C(C)C` (centres unmarked) [H, --C2 H5, N-ethyl-p-menthane-3-carboxamide], in the assay on cold receptors [1], the “Threshold” value was determined as 0.3 µg. Also, the cooling effect entry in the assay on cold receptors [2] (Example 12, toothpick, 0.01 mg, tongue) is listed as “a distinct cooling effect is noticeable after a short period of time”; with cold receptors [2] (Example 17, mint sweet, 0.05%, mouth), “characteristic cooling effect in the mouth of peppermint”; in the assay on cold receptors [2] (Example 25, water soluble adhesive on label, 0.025%, tongue), “a pleasant cooling sensation on the tongue”; with cold receptors [3] (setting [7]), “a clearly noticeable cooling effect became apparent after a short interval of time”; in the assay with cold receptors [3] (Example 24, cleansing tissue, 1.0% in liquid, skin), “a fresh cool sensation developed on the skin after a short interval”; in the assay with cold receptors [5] (Example 20, indigestion tablet) it was “after a short interval of time a noticeable cooling effect in the stomach”. The cooling effect entry with cold receptors [5] (Example 23, soluble aspirin tablet) was “a quite noticeable cooling effect developed in the stomach after a short interval”.
In the case of `CCCOC(=O)CCNC(=O)C1CC(C)CCC1C(C)C` (stereo not drawn) [N-p-menth-3-oyl-β-aminopropionic acid n-propyl ester], in the assay with cold receptors [2] (Example 19, ice cream, 0.05%), the cooling effect entry is listed as “a cooling effect is noticeable which persists after the cooling effect attributable to the temperature of the ice cream has disappeared”.
For the molecule `CCCOC(=O)CNC(=O)C1CC(C)CCC1C(C)C` (centres unmarked) [H, --CH2 COOC3 H7 (n), N-(p-menth-3-oyl)glycine n-propyl ester], the “Threshold” value in the assay on cold receptors [1] came out at 0.3 µg. In the assay on cold receptors [3] (Example 22, antipruritic ointment, 0.1%, skin), the cooling effect result is “soothing effect on the skin accompanied by a noticeable cooling effect”.
For `CCC(CC)C(=O)N(C)C` [N,N-Dimethyl 2-ethylbutanamide], the “cooling taste or refreshing effect” value in assay [4] is “refreshing effect”.
`CC1CCC(C(C)C)C(C(=O)N(CCO)CCO)C1` (centres unmarked) [--CH2 CH2 OH, --CH2 CH2 OH, N,N-bis(2-hydroxyethyl)-p-menthane-3-carboxamide]: in the assay with cold receptors [1], the “Threshold” value came out at 50 µg. Further, the cooling effect result in the assay on cold receptors [2] (Example 18, chewing gum, 5.0%, mouth) is “marked cooling effect in the mouth”.
Turning to `CC1CCC(C(C)C)C(C(=O)NCCO)C1` (centres unmarked) [H, --CH2 CH2 OH, N-(2-hydroxyethyl)-p-menthane carboxamide], in the assay on cold receptors [6], the cooling effect entry is “a cool fresh sensation is apparent on the eyeball and eyelids”. Further, in the assay on cold receptors [1], the “Threshold” value turned out to be 5 µg.
`CC1CCC(C(C)C)C(C(=O)NCCCO)C1` (centres unmarked) [H, --(CH2)3 OH, N-3-hydroxypropyl-p-menthane carboxamide]: the “Threshold” value in the assay on cold receptors [1] turned out to be 3 µg. Further, in the assay on cold receptors [3] (Example 24 repeated, cleansing tissue, 2.0%, skin, in place of the N-ethyl compound), the cooling effect entry is recorded as “equally effective results”.
In the case of `CC(O)CNC(=O)C1CC(C)CCC1C(C)C` (centres unmarked) [H, --CH2 CH(OH)CH3, N-(2-hydroxy-n-propyl)-p-menthane-3-carboxamide], the “Threshold” value in the assay with cold receptors [1] was 5.5 µg. Besides, the cooling effect result with cold receptors [2] (Example 15, gin, 0.08%, mouth) is “a very strong cooling after-effect is obtained in the mouth”; in the assay on cold receptors [3] (Example 5, hair shampoo, 3.3%, scalp), “a fresh, cool sensation is noticed on the scalp”; in the assay with cold receptors [3] (Example 7, solid cologne, 3.0%, forehead), “a very strong and long lasting cooling effect is obtained”.
On to `CC1CCC(C(C)C)C(C(=O)N(C)C)C1` (centres unmarked) [--CH3, --CH3, N,N-dimethyl-p-menthane-3-carboxamide], for which the “Threshold” value in the assay on cold receptors [1] is 1.5 µg. The cooling effect result in the assay on cold receptors [2] (Example 16, boiled sweet, 0.13%, mouth) was “marked cooling effect on the mouth”; in the assay on cold receptors [3] (Example 1, aerosol shaving soap, 1.0%, face), “a fresh cool sensation was distinctly noticeable on the face”; with cold receptors [3] (setting [7]), “a clearly noticeable cooling effect became apparent after a short interval of time”.
